Reference: patent US10874659B2, “Iloperidone metabolite for use in the treatment of psychiatric disorders” (Vanda Pharmaceuticals, Inc., priority 2012, dated 2020)

Assay: Conversion of (R)-P88 and (S)-P88 to iloperidone in human liver S9 fraction in the presence of NAD and NADP
Assay type: in vitro ADME
Conditions: 13 concentrations 1 to 100 μM, initial rate conditions
Procedure: The aim of this study was to evaluate the potential conversion of (R)-P88 and (S)-P88 to iloperidone in human liver S9 fraction in the presence of NAD and NADP. A copy of the final report from this study, entitled, “InVitro Metabolism of (R)-P88 and (S)-P88 in Human Liver S9 Fraction,” (“Final Report”) is attached.
Three concentrations of (R)-P88 and (S)-P88 (1, 10 and 100 μM) were incubated with human liver S9 fractions in the presence of NAD and NADP. Under initial rate conditions, 13 concentrations of (R)-P88 and (S)-P88 (1 to 100 μM) were incubated with human liver S9 fractions to determine the Michaelis-Menten enzyme kinetic constants, Km and Vmax, for the formation of iloperidone.

SMILES | Enzyme kinetic behaviour of the conversion to iloperidone (plot shape / best-fit model)
COc1cc([C@H](C)O)ccc1OCCCN1CCC(c2noc3cc(F)ccc23)CC1 [S-P88] | best fit a biphasic saturation enzyme model
COc1cc([C@@H](C)O)ccc1OCCCN1CCC(c2noc3cc(F)ccc23)CC1 [R-P88] | slightly S-shaped direct plot and “hook”-shaped Eadie-Hofstee plot suggesting allosteric interactions
